pIC50: −log10 of the molar value.
target: SARS-CoV-2 Papain like protease (PLpro) (Severe acute respiratory syndrome coronavirus 2 (2019-nCoV) (SARS-CoV-2), UniProt P0DTD1); assay: Papain Like Protease (PLpro) biochemical assay with profluorogenic substrate Z-RLRGG-AMC; settings: IC50 (μM), SARS-CoV-2 PLpro 6.25 nM, 25 μM Z-RLRGG-AMC substrate, 60 minute reaction

| SMILES | IC50 |
| --- | --- |
| Cc1ccc(N2CC3CC(C2)N3C)cc1C(=O)NC1(c2cc(-c3cnn(C)c3)nc3ccccc23)CC1 [Example 290, 2-methyl-N-(1-(2-(1-methyl-1H-pyrazol-4-yl)quinolin-4-yl)cyclopropyl)-5-(6-methyl-3,6-diazabicyclo[3.1.1]heptan-3-yl)benzamide] | 0.001 µM |
| Cc1ccc(CN)cc1C(=O)NC(C)c1cc(-n2ccnc2)nc2ccccc12 (stereo not drawn) [Example 36, N-(1-(2-(1H-imidazol-1-yl)quinolin-4-yl)ethyl)-5-(aminomethyl)-2-methylbenzamide] | 0.21 µM |

same assay, conditions: SARS-CoV-2 PLpro 6.25 nM, 25 μM Z-RLRGG-AMC substrate, 60 minute reaction; read-out: IC50

| SMILES | pIC50 |
| --- | --- |
| Cc1cc(COCc2cscn2)ccc1C(=O)NC1(c2cc(-c3cnn(CC(=O)N(C)C)c3)nc3ccccc23)CC1 [Example 342, N-(1-(2-(1-(2-(dimethylamino)-2-oxoethyl)-1H-pyrazol-4-yl)quinolin-4-yl)cyclopropyl)-2-methyl-4-((thiazol-4-ylmethoxy)methyl)benzamide] | > 9.00 |
| Cc1ccccc1C(=O)N[C@H](C)c1cc(N(C)C)nc2ccccc12 [Example 42, (R)-N-(1-(2-(dimethylamino)quinolin-4-yl)ethyl)-2-methylbenzamide] | 5.66 |
| Cc1cc(CNCc2cscn2)ccc1C(=O)N[C@H](C)c1cc(-c2cnn(C)c2)nc2ccccc12 [Example 74, (R)-2-methyl-N-(1-(2-(1-methyl-1H-pyrazol-4-yl)quinolin-4-yl)ethyl)-4-(((thiazol-4-ylmethyl)amino)methyl)benzamide] | 8.10 |
| Cc1ccc(N2C[C@H]3C[C@@H]2CN3C)cc1C(=O)N[C@H](C)c1cc(-c2cnn(C)c2)nc2ccccc12 (single isomer, unassigned) [Example 280, 2-methyl-N—((R)-1-(2-(1-methyl-1H-pyrazol-4-yl)quinolin-4-yl)ethyl)-5-((1R*,4R*)-5-methyl-2,5-diazabicyclo[2.2.1]heptan-2-yl)benzamide] | 7.77 |
| Cc1ccccc1C(=O)N[C@H](C)c1cc(N)nc2ccccc12 [Example 39, (R)-N-(1-(2-aminoquinolin-4-yl)ethyl)-2-methylbenzamide] | 6.06 |
| COC[C@@H](OCc1cscn1)c1ccc(C(=O)NC2(c3cc(-c4cc(C(=O)N(C)C)n[nH]4)nc4ccccc34)CC2)c(C)c1 (single isomer, unassigned) [Example 336] | > 9.00 |
| Cc1ccc(N2CCC3(CCCCN3)C2=O)cc1C(=O)N[C@H](C)c1cc(-c2cnn(C)c2)nc2ccccc12 (stereo partly drawn) [Example 240] | 7.59 |
| COC[C@@H](OCc1cocn1)c1ccc(C(=O)NC2(c3cc(-c4cnn(C)c4)cc4nc(C)ccc34)CC2)c(C)c1 (single isomer, unassigned) [Example 365] | > 9.00 |
| Cc1cc(C2(NC(=O)c3cscn3)CC2)ccc1C(=O)N[C@H](C)c1cc(-c2cnn(C)c2)nc2ccccc12 [Example 212, (R)-N-(1-(3-methyl-4-((1-(2-(1-methyl-1H-pyrazol-4-yl)quinolin-4-yl)ethyl)carbamoyl)phenyl)cyclopropyl)thiazole-4-carboxamide] | 7.24 |
| CCCc1cc(C(C)NC(=O)c2ccccc2C)c2ccccc2n1 (stereo in doubt) [Example 153, 2-methyl-N-[(1R)-1-(2-propylquinolin-4-yl)ethyl]benzamide] | 6.51 |
| Cc1ccc(CN)cc1C(=O)N[C@H](C)c1cc(-n2cncn2)nc2ccccc12 [Example 24, (R)-N-(1-(2-(1H-1,2,4-triazol-1-yl)quinolin-4-yl)ethyl)-5-(aminomethyl)-2-methylbenzamide] | 6.60 |
| Cc1ccc(N2CCC(N)C2=O)cc1C(=O)N[C@H](C)c1cc(-c2cnn(C)c2)nc2ccccc12 (stereo partly drawn) [Example 247] | 7.04 |
| COC(=O)c1c[nH]c(-c2cc(C(C)NC(=O)c3cc(CN)ccc3C)c3ccccc3c2)c1 (stereo not drawn) [Example 70, methyl 5-(4-(1-(5-(aminomethyl)-2-methylbenzamido)ethyl)naphthalen-2-yl)-1H-pyrrole-3-carboxylate] | 7.96 |
| Cc1ccccc1C(=O)NC(C)c1cc(-c2cnn(C(C)(C)C)c2)nc2ccccc12 (stereo not drawn) [Example 113, N-{1-[2-(1-tert-butyl-1H-pyrazol-4-yl)quinolin-4-yl]ethyl}-2-methylbenzamide] | 6.10 |
| Cc1ccccc1C(=O)NC(C)c1cc(-c2ccc3ncnn3c2)nc2ccccc12 (stereo not drawn) [Example 118, 2-methyl-N-{1-[2-([1,2,4]triazolo[1,5-a]pyridin-6-yl)quinolin-4-yl]ethyl}benzamide] | 5.88 |
| Cc1ccccc1C(=O)NC(C)c1cc(-c2cnn(CC3(C#N)CC3)c2)nc2ccccc12 (stereo not drawn) [Example 123, N-[1-(2-{1-[(1-cyanocyclopropyl)methyl]-1H-pyrazol-4-yl}quinolin-4-yl)ethyl]-2-methylbenzamide] | 6.48 |
| COC[C@H](OCc1cocn1)c1ccc(C(=O)NC2(c3cc(-c4cnn(C)c4)nc4ccccc34)CC2)c(C)c1 (single isomer, unassigned) [Example 338] | 8.52 |
| CNCc1ccc(C)c(C(=O)N[C@H](C)c2cc(-c3cnn(C)c3)nc3ccccc23)c1 [Example 13, (R)-2-methyl-N-(1-(2-(1-methyl-1H-pyrazol-4-yl)quinolin-4-yl)ethyl)-5-((methylamino)methyl)benzamide] | 7.62 |
| Cc1ccccc1C(=O)N[C@H](C)c1cc(-c2ccnn2C)nc2ccccc12 [Example 50, (R)-2-methyl-N-(1-(2-(1-methyl-1H-pyrazol-5-yl)quinolin-4-yl)ethyl)benzamide] | 6.31 |
| Cc1cc(C(C)(C)NCc2cscn2)ccc1C(=O)N[C@H](C)c1cc(-c2cnn(C)c2)nc2ccccc12 [Example 241, (R)-2-methyl-N-(1-(2-(1-methyl-1H-pyrazol-4-yl)quinolin-4-yl)ethyl)-4-(2-((thiazol-4-ylmethyl)amino)propan-2-yl)benzamide] | 8.15 |
| COCC(OCc1cscn1)c1ccc(C(=O)N[C@H](C)c2cc(-c3cnn(C)c3)nc3ccccc23)c(C)c1 (mixture of isomers) [Example 331, 4-(2-methoxy-1-(thiazol-4-ylmethoxy)ethyl)-2-methyl-N-((R)-1-(2-(1-methyl-1H-pyrazol-4-yl)quinolin-4-yl)ethyl)benzamide] | > 9.00 |
| Cc1ccccc1C(=O)NC(C)c1cc(-c2cnn(CCN3CCOCC3)c2)nc2ccccc12 (stereo not drawn) [Example 125, 2-methyl-N-[1-(2-{1-[2-(morpholin-4-yl)ethyl]-1H-pyrazol-4-yl}quinolin-4-yl)ethyl]benzamide] | 6.53 |
| Cn1cc(-c2cc(C3(NC(=O)c4ccccc4CCC(=O)NNC(=O)/C=C/C(N)=O)CC3)c3ccccc3n2)cn1 [Example 226, (E)-2-(3-(2-(4-amino-4-oxobut-2-enoyl)hydrazineyl)-3-oxopropyl)-N-(1-(2-(1-methyl-1H-pyrazol-4-yl)quinolin-4-yl)cyclopropyl)benzamide] | 7.77 |
| Cc1ccc2c(C3(NC(=O)c4ccc(COCc5cocn5)cc4C)CC3)cc(-c3cnn(C)c3)cc2n1 [Example 348, 2-methyl-N-(1-(2-methyl-7-(1-methyl-1H-pyrazol-4-yl)quinolin-5-yl)cyclopropyl)-4-((oxazol-4-ylmethoxy)methyl)benzamide] | > 9.00 |
| Cc1ccccc1C(=O)NC(C)c1cc(-c2csc(C#N)c2)nc2ccccc12 (stereo not drawn) [Example 103, N-{1-[2-(5-cyanothiophen-3-yl)quinolin-4-yl]ethyl}-2-methylbenzamide] | 6.21 |

Reference: patent US20240245673A1, “Papain-like protease (PLpro) inhibitors” (Pfizer Inc., priority 2022, published 2024)
